Entries after “also recorded” stand apart in the source; their conditions may differ. Where two headings read alike, the source gives them in different places.
Columns and labels:
GABA-A receptors = details: Visser et al., 2003; cited from earlier work
GABA-A α5 receptors = target: T1, GABA-A α5 receptors (Rattus norvegicus, UniProt P18508+P19969); details: Wistar rats prenatally exposed to valproic acid; cited from earlier work
T1 construct: host or cells: Wistar rats in vivo (valproic acid model)
T1 sequence (P19969 32-464 limits assumed): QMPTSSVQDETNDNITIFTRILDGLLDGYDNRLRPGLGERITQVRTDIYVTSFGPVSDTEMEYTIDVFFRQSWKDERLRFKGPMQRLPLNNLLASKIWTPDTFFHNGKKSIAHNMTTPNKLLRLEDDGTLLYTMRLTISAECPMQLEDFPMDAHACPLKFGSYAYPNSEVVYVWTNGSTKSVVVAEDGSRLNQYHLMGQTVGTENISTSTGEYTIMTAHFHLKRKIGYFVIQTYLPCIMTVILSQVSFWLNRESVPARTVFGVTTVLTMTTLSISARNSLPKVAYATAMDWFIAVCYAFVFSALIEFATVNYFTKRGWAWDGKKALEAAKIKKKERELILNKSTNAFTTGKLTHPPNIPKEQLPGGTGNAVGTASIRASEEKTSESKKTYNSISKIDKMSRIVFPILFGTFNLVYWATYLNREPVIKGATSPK
T1 sequence (P63079 26-473 partner): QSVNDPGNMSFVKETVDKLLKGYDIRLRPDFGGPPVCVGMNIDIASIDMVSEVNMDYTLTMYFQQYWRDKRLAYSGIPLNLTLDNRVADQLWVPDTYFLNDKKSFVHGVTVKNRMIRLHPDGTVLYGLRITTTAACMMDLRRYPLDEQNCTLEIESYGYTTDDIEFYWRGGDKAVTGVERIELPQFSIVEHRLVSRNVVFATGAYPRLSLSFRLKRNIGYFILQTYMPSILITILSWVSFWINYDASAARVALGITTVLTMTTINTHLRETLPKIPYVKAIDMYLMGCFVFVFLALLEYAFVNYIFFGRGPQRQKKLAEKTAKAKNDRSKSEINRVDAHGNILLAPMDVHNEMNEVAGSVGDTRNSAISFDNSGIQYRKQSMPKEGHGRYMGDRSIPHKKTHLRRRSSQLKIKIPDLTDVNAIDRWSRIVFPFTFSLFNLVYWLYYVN
T1 sequence (P18508 39-466): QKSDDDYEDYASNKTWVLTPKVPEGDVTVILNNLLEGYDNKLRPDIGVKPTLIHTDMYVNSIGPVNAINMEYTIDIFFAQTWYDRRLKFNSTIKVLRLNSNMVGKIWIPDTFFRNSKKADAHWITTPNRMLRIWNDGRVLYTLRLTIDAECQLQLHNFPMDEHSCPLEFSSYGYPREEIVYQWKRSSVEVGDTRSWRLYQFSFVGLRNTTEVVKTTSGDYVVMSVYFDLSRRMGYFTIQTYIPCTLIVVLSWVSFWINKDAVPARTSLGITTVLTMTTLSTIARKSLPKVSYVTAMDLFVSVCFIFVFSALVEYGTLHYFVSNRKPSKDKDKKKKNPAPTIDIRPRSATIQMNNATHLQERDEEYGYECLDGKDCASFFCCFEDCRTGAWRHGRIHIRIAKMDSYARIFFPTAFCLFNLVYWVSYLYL

GABA-A α5 [1] = target: T2, GABA-A α5 (Homo sapiens, UniProt P18507+P31644); experiment: Resting state EEG, Phase 1 SAD/MAD study BP40091 (alogabat vs placebo); type: in vivo, human (adult healthy volunteers); parameters: endogenous in cells; host or cells: brain of adult healthy volunteers, in vivo (resting-state EEG)
T2 sequence (P31644 32-462): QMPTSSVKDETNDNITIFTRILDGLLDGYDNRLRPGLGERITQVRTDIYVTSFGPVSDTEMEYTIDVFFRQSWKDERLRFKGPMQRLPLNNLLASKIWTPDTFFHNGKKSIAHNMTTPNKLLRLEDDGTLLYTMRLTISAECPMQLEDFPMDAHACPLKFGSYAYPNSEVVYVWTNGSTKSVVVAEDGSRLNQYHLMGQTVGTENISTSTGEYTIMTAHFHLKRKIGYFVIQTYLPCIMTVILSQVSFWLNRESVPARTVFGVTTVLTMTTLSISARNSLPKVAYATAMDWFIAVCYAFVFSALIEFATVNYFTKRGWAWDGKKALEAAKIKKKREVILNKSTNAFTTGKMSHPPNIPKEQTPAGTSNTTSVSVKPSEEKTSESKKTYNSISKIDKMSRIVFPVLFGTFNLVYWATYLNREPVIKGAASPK
T2 sequence (P28472 26-473 partner): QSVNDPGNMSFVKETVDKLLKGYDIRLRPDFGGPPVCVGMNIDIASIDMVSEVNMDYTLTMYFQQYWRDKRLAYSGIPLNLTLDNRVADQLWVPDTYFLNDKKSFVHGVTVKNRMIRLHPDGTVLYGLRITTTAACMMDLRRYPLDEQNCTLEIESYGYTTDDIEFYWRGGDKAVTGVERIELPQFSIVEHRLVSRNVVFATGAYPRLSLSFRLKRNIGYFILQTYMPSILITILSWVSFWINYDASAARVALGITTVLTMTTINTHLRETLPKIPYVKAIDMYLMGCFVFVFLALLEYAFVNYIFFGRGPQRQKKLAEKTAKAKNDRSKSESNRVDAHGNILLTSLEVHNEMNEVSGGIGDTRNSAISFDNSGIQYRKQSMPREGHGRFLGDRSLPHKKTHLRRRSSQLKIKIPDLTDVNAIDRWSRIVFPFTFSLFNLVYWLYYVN
T2 sequence (P18507 40-467 limits assumed): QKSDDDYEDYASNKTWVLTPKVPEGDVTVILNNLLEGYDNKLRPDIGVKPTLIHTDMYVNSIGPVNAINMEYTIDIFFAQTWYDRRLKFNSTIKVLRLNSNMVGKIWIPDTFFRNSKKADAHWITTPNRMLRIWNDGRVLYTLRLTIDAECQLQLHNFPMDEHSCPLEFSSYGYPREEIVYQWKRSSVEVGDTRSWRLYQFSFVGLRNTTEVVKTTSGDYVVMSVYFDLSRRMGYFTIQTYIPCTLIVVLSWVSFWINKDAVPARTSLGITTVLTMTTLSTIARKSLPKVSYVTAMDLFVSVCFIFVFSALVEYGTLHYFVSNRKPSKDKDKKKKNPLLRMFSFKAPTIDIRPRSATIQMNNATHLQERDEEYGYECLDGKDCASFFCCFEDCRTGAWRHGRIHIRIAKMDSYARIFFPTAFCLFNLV
Excerpt: Extracting beta band oscillations. […] Here this approach is applied to isolate beta-band oscillations from EEG signals (FIGS. 4,5). This approach entails the estimation of the “background activity” in the frequency range of interest, which is non-oscillatory and/or composed of many oscillatory signals at different neighboring frequencies and therefore appears non-oscillatory. In a first implementation referred to as “locally referenced power”, the “background activity” for a given frequency range of interest (here beta frequency range defined as 16-32 Hz) is estimated by interpolation from power at lower and higher neighboring frequencies, referred to herein as “reference supports” (in this example, reference support points of 12 and 40 Hz are used). Note that in cases where a peak in the alpha band is expected (e.g. a peak around 10 Hz), reference support points that are closer to the beta frequency range on the lower end of the scale may be used, such as e.g. any point between 12 and 16 Hz). The estimated “background activity” is then “removed” (i.e. excluded, such as subtracted) from the power in the frequency range of interest or a power spectral density value at a specific frequency within this frequency range (e.g. the peak frequency, or a predetermined frequency, such as e.g. a frequency identified as the group level peak in a population, e.g. 23 Hz in the present case). The resulting estimate should thereby provide a more specific measure of the oscillatory physiological process under investigation (here GABAA-related beta-band oscillations).
More specifically, the “background power spectral density” at a given frequency may be derived by linear interpolation of logarithmically transformed power and frequencies (see FIG. 4B). The power signal in spectral analysis is typically log transformed by default. […] The “background power” is then estimated as the integral of this “background power spectral density” over the beta frequency range (here defined as 16-32 Hz). In other words, the “background signal” is the area under a straight line extending between the value of the spectrum at each of the support points (“background signal line”), between 16 and 32 Hz. The “locally referenced beta power” is then defined as the logarithm of the ratio between the beta power defined as the integral over the beta frequency range and the estimate of the “background power” (which is equivalent to the logarithm of the beta power defined as the integral over the beta frequency range, minus the logarithm of the estimate of the “background power”, or the area under the power curve in log scale, in the beta frequency range, minus the area under the background signal line in log scale, in the beta frequency range). Note that this metric will be negative when there is a deficit in the signal in this range compared to background.
In a third implementation, an approach using a global fit of the power spectrum composed of a superposition of oscillatory signals and a 1/f^α component was used to estimate the background signal. The 1/f^α component of the fit (estimated as described in Donoghue et al., 2020, see FIG. 4C—note that only step (a) of the method described in Donoghue et al. is used herein, where an aperiodic component is estimated, see FIG. 2a of Donoghue et al.) was used as the estimate of the background power spectral density. Analogously to the above, in a first embodiment of this third implementation, the extracted “1 over f referenced beta power” was used to estimate the background signal, and in a second embodiment the extracted “1 over f referenced beta peak power” was used to estimate the background signal. […]

GABA-A α5 [2] = target: T2, GABA-A α5; parameters: host or cells: brain of healthy volunteers (and individuals with Down syndrome), in vivo EEG; details: cited from earlier work
[3] = selective doses 25-100 mg, parallel group, no pre-treatment baseline

SMILES: CCc1c(C(=O)OC)ncc2[nH]c3cc(OC)c(OC)cc3c12 [DMCM]
- EEG beta-band power, non-selective GABA-A NAMs (GABA-A receptors): decrease beta-band power

SMILES: C#Cc1ccc2c(c1)C(c1ccccc1F)=N[C@H](C)c1c(C(=O)NC)ncn1-2 [MP-III-022]
- Impairments in social, repetitive and restrictive behavioural domains (GABA-A α5 receptors): prevented impairments in many parameters

SMILES: CN1Cc2c(C(=O)OC(C)(C)C)ncn2-c2ccsc2C1=O [Ro 19-4603]
- EEG beta-band power, non-selective GABA-A NAMs (GABA-A receptors): decrease beta-band power

SMILES: Cc1ccc(-c2noc(C)c2COc2ccc(C(=O)NC3CCOCC3)nn2)cn1 [alogabat]
- Dose range that exhibits the full PD response (within GABA-A a5 receptor selective dose range) (GABA-A α5 [1]; EEG beta-band power change from baseline across dose levels): 25 to 100 mg
- Effect size (ES) placebo vs treated group, locally referenced beta power (GABA-A α5 [1]; both variants (FIG. 4B interpolation, FIG. 4C 1/f fit), selective doses 25-100 mg, parallel group, no pre-treatment baseline, p<0.007): ~0.7
- Frequency specificity of the pharmacodynamic EEG effect (GABA-A α5 [1]; change in power spectrum, 25-100 mg vs placebo, relative to pre-treatment baseline): specific to the beta-band
- Change from baseline in EEG beta-band power (12-30 Hz) (GABA-A α5 [1]; relative to pre-dose baseline, compared to placebo, about 180 min after dosing): increases EEG beta-band power; also recorded: strong and consistent increase in beta-band power
- Effect size (ES) placebo vs treated group, relative beta power (GABA-A α5 [1]; [3]): 0.62
- Separation of placebo and treated group by absolute beta power (GABA-A α5 [1]; [3]): not able to discriminate between the alogabat and the placebo group; also recorded: does not allow separating groups

SMILES: Cc1onc(-c2ccc(F)cc2)c1COc1ccc(C(=O)N2CCS(=O)(=O)CC2)cn1 [basmisanil]
- EEG beta-band power (GABA-A α5 [2]; healthy volunteers and individuals with down-syndrome, Goeldner et al., 2022, Hipp et al., 2021): decrease in beta-band power
- EEG beta-band power (GABA-A α5 [2]; healthy volunteers, Hipp et al., 2021, FIG. 6): decrease EEG beta-band power

Source: patent US20260033761A1, “CHARACTERISATION OF NEUROLOGICAL DYSFUNCTION” (Hoffmann-La Roche Inc., priority 2022, published 2026)
